Test results reported in patent US20220073471A1 (JIANGSU HENGRUI MEDICINE CO., LTD., priority 2019, published 2022).

What was measured:
[1] = molecular target: T1, Nav1.8 ion channel stably expressed on HEK293 cells (Homo sapiens, UniProt Q9Y5Y9); experiment: Inhibitory activity on Nav1.8, manual patch clamp; type: cell-based; conditions: resting, clamped at -80 mV, 1 μM TTX, read-out: IC50 on inhibiting the Nav1.8 channel activity
T1 construct: expressed in transfected cells; host or cells: HEK293
T1 sequence (Q9Y5Y9 whole entry): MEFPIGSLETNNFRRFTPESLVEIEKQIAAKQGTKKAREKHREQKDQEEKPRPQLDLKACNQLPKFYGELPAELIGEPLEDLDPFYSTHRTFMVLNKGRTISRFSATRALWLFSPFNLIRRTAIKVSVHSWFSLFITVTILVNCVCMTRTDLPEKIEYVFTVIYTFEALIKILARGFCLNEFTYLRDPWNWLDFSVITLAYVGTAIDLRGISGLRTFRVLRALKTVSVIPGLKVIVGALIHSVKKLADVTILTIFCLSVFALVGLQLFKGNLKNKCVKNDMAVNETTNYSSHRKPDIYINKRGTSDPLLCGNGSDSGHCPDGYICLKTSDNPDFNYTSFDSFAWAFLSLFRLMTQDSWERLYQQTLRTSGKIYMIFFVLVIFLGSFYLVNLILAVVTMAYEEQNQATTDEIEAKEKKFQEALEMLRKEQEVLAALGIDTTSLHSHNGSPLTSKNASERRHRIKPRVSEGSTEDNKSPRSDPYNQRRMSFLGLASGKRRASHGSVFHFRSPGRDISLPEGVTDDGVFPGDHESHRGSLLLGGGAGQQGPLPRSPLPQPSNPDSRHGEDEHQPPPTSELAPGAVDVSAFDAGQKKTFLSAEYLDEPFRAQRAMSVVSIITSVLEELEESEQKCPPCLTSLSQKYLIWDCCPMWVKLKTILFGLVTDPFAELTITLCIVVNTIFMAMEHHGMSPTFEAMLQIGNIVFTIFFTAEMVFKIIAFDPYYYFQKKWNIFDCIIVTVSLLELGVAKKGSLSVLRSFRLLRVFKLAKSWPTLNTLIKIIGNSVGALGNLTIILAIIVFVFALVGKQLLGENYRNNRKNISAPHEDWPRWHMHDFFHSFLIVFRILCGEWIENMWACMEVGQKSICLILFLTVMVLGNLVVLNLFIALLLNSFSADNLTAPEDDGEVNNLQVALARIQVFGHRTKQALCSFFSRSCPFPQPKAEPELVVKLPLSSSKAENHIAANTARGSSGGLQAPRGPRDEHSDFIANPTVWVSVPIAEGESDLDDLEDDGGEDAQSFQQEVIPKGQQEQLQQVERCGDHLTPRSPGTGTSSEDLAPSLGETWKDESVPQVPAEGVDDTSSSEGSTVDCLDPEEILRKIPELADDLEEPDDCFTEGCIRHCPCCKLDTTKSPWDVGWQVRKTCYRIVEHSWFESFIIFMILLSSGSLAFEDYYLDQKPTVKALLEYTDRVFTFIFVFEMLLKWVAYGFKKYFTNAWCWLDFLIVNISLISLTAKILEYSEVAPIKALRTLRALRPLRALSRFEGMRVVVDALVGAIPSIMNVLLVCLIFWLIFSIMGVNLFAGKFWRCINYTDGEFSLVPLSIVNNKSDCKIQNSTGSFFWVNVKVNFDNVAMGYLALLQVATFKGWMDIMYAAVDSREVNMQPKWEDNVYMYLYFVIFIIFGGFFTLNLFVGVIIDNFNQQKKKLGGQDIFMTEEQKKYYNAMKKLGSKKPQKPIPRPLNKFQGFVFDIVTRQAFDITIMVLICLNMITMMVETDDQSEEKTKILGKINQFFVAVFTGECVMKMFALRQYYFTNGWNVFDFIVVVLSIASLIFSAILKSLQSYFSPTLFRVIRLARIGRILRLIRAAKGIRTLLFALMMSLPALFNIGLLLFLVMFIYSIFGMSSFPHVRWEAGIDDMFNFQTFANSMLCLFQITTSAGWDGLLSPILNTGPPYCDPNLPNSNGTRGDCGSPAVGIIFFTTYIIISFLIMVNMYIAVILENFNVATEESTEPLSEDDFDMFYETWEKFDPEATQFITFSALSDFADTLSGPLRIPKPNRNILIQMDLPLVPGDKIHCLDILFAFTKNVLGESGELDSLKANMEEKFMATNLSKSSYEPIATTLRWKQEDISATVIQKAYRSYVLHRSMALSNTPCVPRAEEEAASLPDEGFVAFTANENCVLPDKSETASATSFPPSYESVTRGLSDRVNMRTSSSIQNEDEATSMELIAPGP
From the text: The purpose of the experiment is to investigate the effect of the compounds on Nav1.8 ion channel in an in vitro experiment, wherein the Nav1.8 ion channel is stably expressed on HEK293 cells. After the Nav1.8 current becomes stable, the Nav1.8 currents before and after the administration of the compound are compared so as to obtain the effect of the compound on the Nav1.8 ion channel.
Except for NaOH and KOH used for acid titration and base titration, all the compounds used for formulating the extracellular fluid and intracellular fluid were purchased from Sigma (St. Louis, Mo.). Extracellular fluid (mM): NaCl, 137; KCl, 4; CaCl2), 1.8; MgCl2, 1; HEPES, 10; glucose, 10; pH 7.4 (NaOH titration). Intracellular fluid (mM): aspartic acid, 140; MgCl2, 2; EGTA, 11; HEPES, 10; pH 7.2 (CsOH titration). All solutions of test compound and control compound contained 1 μM TTX.
The test compound was dissolved in dimethyl sulfoxide (DMSO) at a stock concentration of 9 mM. The stock solution of the test compound was dissolved in the extracellular fluid on the day of the test and formulated into the required concentration.
1) The compound was formulated into solutions with specified concentrations, the solutions were added to the pipelines respectively in order from low to high concentration, and the pipelines were marked.
2) The cell was transferred to the perfusion tank. A positive pressure was applied to the electrode. The tip of the electrode touched the cell. The three-way valve of the air extracting device was adjusted to a three-way state. A negative pressure was applied to the electrode, so that a high-resistance seal was formed between the electrode and the cell.
The negative pressure was applied continuously, thereby causing the cell membrane to rupture and forming a current path.
3) After the current for rupturing the cell membrane became stable, perfusion of different concentrations was carried out in sequence. Once the current was stable for at least one minute, perfusion of the next concentration was carried out.
4) The perfusion tank was cleaned. The perfusion tank was rinsed with the drug solutions in order from high to low concentration, and the rinse duration for each concentration of drug solution was 20 seconds. The perfusion tank was finally rinsed with the extracellular fluid for 1 minute.
The cell was clamped at −80 mV. The cell was depolarized to 10 mV with a square wave lasting 10 milliseconds to obtain the Nav1.8 current. This procedure was repeated every 5 seconds. The maximum current caused by the square wave was measured. After the current became stable, the test compound was perfused. After the response became stable, the blocking intensity was calculated.
The data was stored in the computer system for analysis. Data collection and analysis were carried out by pCLAMP 10 (Molecular Devices, Union City, Calif.), and the analysis results were reviewed by the administrator. Stable current means that the current changes within a limited range over time. The magnitude of stable current was used to calculate the effect of the compound at the concentration.

[2] = Pharmacokinetics assay in rats after intragastrical administration; type: in vivo; conditions: both sexes, Sprague-Dawley (SD), rat, plasma, po, 2 mg/kg; for Vd/F: read-out: Apparent distribution volume Vz/F; for AUC: read-out: Area under curve AUC; for bioavailability: read-out: Bioavailability F; for CL/F: read-out: Clearance CL/F; for half-life: read-out: Half-life T½ (converted); for Cmax: read-out: Plasma concentration Cmax; for MRT: read-out: Residence time MRT
Protocol: Rats were used as test animals. The drug concentration in plasma at different time points was determined by LC/MS/MS method after intragastrical administration of the compounds of Example 2, Example 11, Example 12, Example 15, Example 31 and Example 33 to rats. The pharmacokinetic behavior of the compounds of the present disclosure was studied and evaluated in rats.
Twenty-four healthy adult SD rats (half male and half female, equally divided into six groups, four rats per group) were purchased from Shanghai Jiesijie Laboratory Animal Co., LTD.
A certain amount of the test compound was weighed, to which 5% of DMSO, 5% of tween 80 and 90% of normal saline were added to prepare a 0.2 mg/mL colorless, clear and transparent solution.
After an overnight fast, SD rats were intragastrically administered the test compound at an administration dose of 2.0 mg/kg and an administration volume of 10.0 mL/kg.
The rats were intragastrically administered the compounds of Example 2, Example 11, Example 12, Example 15, Example 31 and Example 33. 0.2 ml of blood was taken from the orbit before the administration and at 0.5, 1.0, 2.0, 4.0, 6.0, 8.0, 11.0 and 24.0 hours after the administration. The samples were stored in heparinized tubes, and centrifuged for 10 minutes at 10000 rpm and 4° C. to separate the blood plasma. The plasma samples were stored at −20° C. The rats were fed 2 hours after the administration.
The content of the test compound in the plasma of rats after intragastrical administration of the test compound at different concentrations was determined: 25 μL of rat plasma at each time point after the administration was taken, to which 30 μL of the internal standard solution and 175 μL of acetonitrile were added. The resulting solution was vortex-mixed for 5 minutes, and centrifuged for 10 minutes (3700 rpm). 0.5 μL of the supernatant was taken from the plasma samples for LC/MS/MS analysis.

## Cc1cc(F)ccc1Oc1cc(C(F)(F)F)c(Cl)cc1C(=O)Nc1cn[nH]c(=O)c1 [Example 2, 5-Chloro-2-(4-fluoro-2-methylphenoxy)-N-(6-oxo-1,6-dihydropyridazin-4-yl)-4-(trifluoromethyl)benzamide]
[1]
  IC50: 1.3 nM
[2]
  Vd/F: 4.71 ± 1.29 L/kg
  AUC: 5960 ± 4280 ng·h/mL
  bioavailability: 149%
  CL/F: 6.24 ± 6.29 mL/min/kg
  half-life: 47 ± 54.6 h
  Cmax: 399 ± 153 ng/mL
  MRT: 68.2 ± 78.3 h

## COc1cc(F)ccc1Oc1cc(C(F)(F)F)c(Cl)cc1C(=O)Nc1cn[nH]c(=O)c1 [Example 11, 5-Chloro-2-(4-fluoro-2-methoxyphenoxy)-N-(6-oxo-1,6-dihydropyridazin-4-yl)-4-(trifluoromethyl)benzamide]
[1]
  IC50: 1.3 nM
[2]
  Vd/F: 5.33 ± 0.72 L/kg
  AUC: 1230 ± 621 ng·h/mL
  bioavailability: 98%
  CL/F: 32.3 ± 15.2 mL/min/kg
  half-life: 2.3 ± 1.14 h
  Cmax: 218 ± 103 ng/mL

## O=C(Nc1cn[nH]c(=O)c1)c1cc(Cl)c(C(F)(F)F)cc1Oc1ccc(F)cc1OC1CC1 [Example 12, 5-Chloro-2-(2-cyclopropoxy-4-fluorophenoxy)-N-(6-oxo-1,6-dihydropyridazin-4-yl)-4-(trifluoromethyl)benzamide]
[1]
  IC50: 0.26 nM
[2]
  Vd/F: 4.17 ± 0.587 L/kg
  AUC: 5980 ± 1130 ng·h/mL
  bioavailability: 111%
  CL/F: 4.3 ± 1.65 mL/min/kg
  half-life: 13.2 ± 7.8 h
  Cmax: 435 ± 64 ng/mL
  MRT: 19.8 ± 10.4 h

## O=C(Nc1cn[nH]c(=O)c1)c1cc(Cl)c(C(F)(F)F)cc1Oc1ccc(F)cc1OC(F)(F)F [Example 15, 5-Chloro-2-(4-fluoro-2-(trifluoromethoxy)phenoxy)-N-(6-oxo-1,6-dihydropyridazin-4-yl)-4-(trifluoromethyl)benzamide]
[1]
  IC50: 4.7 nM
[2]
  Vd/F: 7.15 ± 0.682 L/kg
  AUC: 5690 ± 552 ng·h/mL
  bioavailability: 94%
  CL/F: 1.46 ± 0.11 mL/min/kg
  half-life: 56.7 ± 6.6 h
  Cmax: 295 ± 44 ng/mL
  MRT: 82.4 ± 10.2 h

## O=C(Nc1cn[nH]c(=O)c1)c1cc(Cl)c(C(F)(F)F)cc1Oc1ccc(F)cc1C1CC1 [Example 31, 5-Chloro-2-(2-cyclopropyl-4-fluorophenoxy)-N-(6-oxo-1,6-dihydropyridazin-4-yl)-4-(trifluoromethyl)benzamide]
[1]
  IC50: 0.94 nM
[2]
  Vd/F: 5.44 ± 0.705 L/kg
  AUC: 5620 ± 1230 ng·h/mL
  bioavailability: 66%
  CL/F: 3.77 ± 2.7 mL/min/kg
  half-life: 33.3 ± 34.8 h
  Cmax: 360 ± 65 ng/mL
  MRT: 48.3 ± 50.3 h

## Cc1cc(F)ccc1Oc1cc(C(F)(F)F)c(Br)cc1C(=O)Nc1cn[nH]c(=O)c1 [Example 33, 5-Bromo-2-(4-fluoro-2-methylphenoxy)-N-(6-oxo-1,6-dihydropyridazin-4-yl)-4-(trifluoromethyl)benzamide]
[1]
  IC50: 0.86 nM
[2]
  Vd/F: 3.99 ± 0.788 L/kg
  AUC: 5550 ± 3020 ng·h/mL
  bioavailability: 99%
  CL/F: 6.4 ± 5.57 mL/min/kg
  half-life: 18.6 ± 17.5 h
  Cmax: 382 ± 88 ng/mL
  MRT: 27.7 ± 24.2 h

## [2H]C([2H])([2H])Oc1cc(F)ccc1Oc1cc(C(F)(F)F)c(Cl)cc1C(=O)Nc1cn[nH]c(=O)c1 [Example 35, 5-Chloro-2-(4-fluoro-2-(methoxy-d3)phenoxy)-N-(6-oxo-1,6-dihydropyridazin-4-yl)-4-(trifluoromethyl)benzamide]
[1]
  IC50: 0.54 nM
[2]
  Vd/F: 5.01 ± 0.875 L/kg
  AUC: 4330 ± 910 ng·h/mL
  bioavailability: 107%
  CL/F: 7.93 ± 1.47 mL/min/kg
  half-life: 7.5 ± 1.92 h
  Cmax: 392 ± 43 ng/mL
  MRT: 10.6 ± 2.3 h

## O=C(Nc1cn[nH]c(=O)c1)c1cc(Cl)c(C(F)(F)F)cc1Oc1ccc(F)cc1Br [Example 43, 2-(2-Bromo-4-fluorophenoxy)-5-chloro-N-(6-oxo-1,6-dihydropyridazin-4-yl)-4-(trifluoromethyl)benzamide]
[1]
  IC50: 3.36 nM

## [2H]C([2H])([2H])c1cc(F)ccc1Oc1cc(C(F)(F)F)c(Cl)cc1C(=O)Nc1cn[nH]c(=O)c1 [Example 44, 5-Chloro-2-(4-fluoro-2-(methyl-d3)phenoxy)-N-(6-oxo-1,6-dihydropyridazin-4-yl)-4-(trifluoromethyl)benzamide]
[1]
  IC50: 4.04 nM

## O=C(Nc1cn[nH]c(=O)c1)c1cc(Cl)c(C(F)(F)F)cc1Oc1ccc(F)cc1Cl [Example 45, 5-Chloro-2-(2-chloro-4-fluorophenoxy)-N-(6-oxo-1,6-dihydropyridazin-4-yl)-4-(trifluoromethyl)benzamide]
[1]
  IC50: 5.08 nM

## O=C(Nc1cn[nH]c(=O)c1)c1cc(Cl)c(C(F)(F)F)cc1Oc1ccc(F)cc1F [Example 46, 5-Chloro-2-(2,4-difluorophenoxy)-N-(6-oxo-1,6-dihydropyridazin-4-yl)-4-(trifluoromethyl)benzamide]
[1]
  IC50: 8.95 nM
